Source: the NIST ThermoML archive (doi:10.1016/j.jct.2016.07.012)

Experiment: molar heat capacity at constant pressure
Conditions: 101.33 kPa, Small (less than 1 g) adiabatic calorimetry

CCCCn1cc[n+](C)c1.F[P-](F)(F)(F)(F)F [1-butyl-3-methylimidazolium hexafluorophosphate]
Conditions | molar heat capacity at constant pressure [J/K/mol]
125.32 K, Metastable crystal | 185.9
127.15 K, Metastable crystal | 191.2
127.23 K, Metastable crystal | 188.2
129.05 K, Metastable crystal | 193.4
129.15 K, Metastable crystal | 190.5
130.95 K, Metastable crystal | 195.6
131.06 K, Metastable crystal | 192.8
132.85 K, Metastable crystal | 197.9
132.97 K, Metastable crystal | 195.1
134.75 K, Metastable crystal | 200.2
134.88 K, Metastable crystal | 197.5
136.65 K, Metastable crystal | 202.5
136.8 K, Metastable crystal | 199.9
138.55 K, Metastable crystal | 204.9
138.71 K, Metastable crystal | 202.4
140.45 K, Metastable crystal | 207.2
140.62 K, Metastable crystal | 204.8
142.35 K, Metastable crystal | 209.7
142.52 K, Metastable crystal | 207.4
144.24 K, Metastable crystal | 212.3
144.42 K, Metastable crystal | 209.9
146.13 K, Metastable crystal | 214.9
146.33 K, Metastable crystal | 212.5
148.01 K, Metastable crystal | 217.6
148.23 K, Metastable crystal | 215.1
149.9 K, Metastable crystal | 220.4
150.13 K, Metastable crystal | 217.7
151.78 K, Metastable crystal | 223.4
152.02 K, Metastable crystal | 220.4
153.65 K, Metastable crystal | 226.5
153.91 K, Metastable crystal | 223.1
155.52 K, Metastable crystal | 229.7
155.79 K, Metastable crystal | 225.9
157.39 K, Metastable crystal | 233.2
157.67 K, Metastable crystal | 228.7
159.24 K, Metastable crystal | 236.9
159.55 K, Metastable crystal | 231.5
161.09 K, Metastable crystal | 241
161.42 K, Metastable crystal | 234.4
162.93 K, Metastable crystal | 245.5
163.29 K, Metastable crystal | 237.3
164.76 K, Metastable crystal | 250.5
165.15 K, Metastable crystal | 240.3
166.58 K, Metastable crystal | 256.4
167.01 K, Metastable crystal | 243.2
168.38 K, Metastable crystal | 263.5
168.87 K, Metastable crystal | 246.3
170.16 K, Metastable crystal | 272.5
170.71 K, Metastable crystal | 249.4
171.91 K, Metastable crystal | 285.3
172.55 K, Metastable crystal | 252.6
173.61 K, Metastable crystal | 306.7
174.39 K, Metastable crystal | 256.1
175.22 K, Metastable crystal | 360.5
176.22 K, Metastable crystal | 258.9
176.68 K, Metastable crystal | 448.8
178.04 K, Metastable crystal | 260.8
178.27 K, Metastable crystal | 265.8
179.86 K, Metastable crystal | 263.5
180.09 K, Metastable crystal | 261.1
181.68 K, Metastable crystal | 266.1
181.91 K, Metastable crystal | 261.4
183.5 K, Metastable crystal | 268.6
183.75 K, Metastable crystal | 262.7
185.31 K, Metastable crystal | 270.9
185.58 K, Metastable crystal | 264.6
187.12 K, Metastable crystal | 273
187.4 K, Metastable crystal | 266.8
188.92 K, Metastable crystal | 274.8
189.22 K, Metastable crystal | 269.2
190.72 K, Metastable crystal | 276.4
191.04 K, Metastable crystal | 271.8
192.53 K, Metastable crystal | 277.7
192.86 K, Metastable crystal | 274.6
194.33 K, Metastable crystal | 278.7
194.66 K, Metastable crystal | 277.6
196.13 K, Metastable crystal | 279.3
196.47 K, Metastable crystal | 280.8
197.94 K, Metastable crystal | 279.8
198.27 K, Metastable crystal | 284.1
199.74 K, Metastable crystal | 280
200.05 K, Metastable crystal | 287.7
201.61 K, Metastable crystal | 280.4
201.89 K, Metastable crystal | 291.8
203.54 K, Metastable crystal | 280.7
203.78 K, Metastable crystal | 296.2
205.47 K, Metastable crystal | 281
205.65 K, Metastable crystal | 301.3
207.4 K, Metastable crystal | 281.3
207.51 K, Metastable crystal | 306.9
209.34 K, Metastable crystal | 281.8
209.36 K, Metastable crystal | 313.5
211.19 K, Metastable crystal | 322.6
211.28 K, Metastable crystal | 282.5
213 K, Metastable crystal | 333.5
213.22 K, Metastable crystal | 283.4
214.77 K, Metastable crystal | 351.9
215.16 K, Metastable crystal | 284.4
216.47 K, Metastable crystal | 395.3
217.1 K, Metastable crystal | 285.1
218.22 K, Metastable crystal | 317.7
219.04 K, Metastable crystal | 285.7
220.12 K, Metastable crystal | 285.9
220.98 K, Metastable crystal | 286.7
222.07 K, Metastable crystal | 286.7
222.93 K, Metastable crystal | 287.8
224.04 K, Metastable crystal | 287.5
224.86 K, Metastable crystal | 288.7
226.9 K, Metastable crystal | 290
228.84 K, Metastable crystal | 291.1
230.78 K, Metastable crystal | 292
232.72 K, Metastable crystal | 293
234.67 K, Metastable crystal | 294.1
236.61 K, Metastable crystal | 295.2
238.55 K, Metastable crystal | 296.3
240.49 K, Metastable crystal | 298.3
242.43 K, Metastable crystal | 299.6
286.27 K, Liquid | 400.3
287.99 K, Liquid | 401.2
289.7 K, Liquid | 402.1
291.41 K, Liquid | 403
293.12 K, Liquid | 404
294.83 K, Liquid | 405.1
296.54 K, Liquid | 405.8
298.25 K, Liquid | 406.9
299.96 K, Liquid | 407.8
301.71 K, Liquid | 409.1
303.52 K, Liquid | 410.1
305.33 K, Liquid | 411
307.14 K, Liquid | 412
308.95 K, Liquid | 412.9
310.75 K, Liquid | 414
312.56 K, Liquid | 415.1
314.36 K, Liquid | 415.8
316.16 K, Liquid | 417
317.97 K, Liquid | 418
319.77 K, Liquid | 419.2
321.57 K, Liquid | 420.1
323.38 K, Liquid | 421
325.18 K, Liquid | 422
326.98 K, Liquid | 423.2
328.78 K, Liquid | 423.9
330.59 K, Liquid | 425
332.39 K, Liquid | 426.1
334.19 K, Liquid | 427.2
335.99 K, Liquid | 428.2
337.79 K, Liquid | 429.2
339.59 K, Liquid | 430.2
341.39 K, Liquid | 431.1
343.18 K, Liquid | 432.1
344.98 K, Liquid | 433.1
346.78 K, Liquid | 434.1
348.58 K, Liquid | 435.2
350.38 K, Liquid | 436.3
352.18 K, Liquid | 437.4
353.99 K, Liquid | 438.3
355.79 K, Liquid | 439.3
357.59 K, Liquid | 440.3
359.4 K, Liquid | 441.1
361.2 K, Liquid | 442.4
363 K, Liquid | 443.4
364.81 K, Liquid | 444.5
366.61 K, Liquid | 445.6
368.41 K, Liquid | 446.3
